The values below are quoted from earlier work in patent EP4398053A1, “CONTROL METHOD FOR […] OF A DYNAMIC SYSTEM AND […]” (Universidade de Aveiro, priority 2023, dated 2024).

For the data set the following is noted: drug elimination within the body; drug-specific model parameter.

On to `O=P1(N(CCCl)CCCl)NCCCO1` (stereo not shown) [Cyclophosphamide], for which the “drug elimination rate λ” value was 4.16 day⁻¹.
